Patent publication US20030130493A1, “DNA encoding Edg7 receptor” (priority 1999, published 2003)

Key:
human Edg7 receptor [1] = biological target: T1, human Edg7 receptor (Homo sapiens, UniProt Q9UBY5); assay: Intracellular calcium mobilization (FLIPR, fluo-3) in Edg7-transfected CHO cells; assay type: cell-based; parameters: expressed in transfected cells; host or cells: CHO (transient, electroporation); conditions: for activity against Edg7: data not shown
T1 sequence (Q9UBY5 1-353): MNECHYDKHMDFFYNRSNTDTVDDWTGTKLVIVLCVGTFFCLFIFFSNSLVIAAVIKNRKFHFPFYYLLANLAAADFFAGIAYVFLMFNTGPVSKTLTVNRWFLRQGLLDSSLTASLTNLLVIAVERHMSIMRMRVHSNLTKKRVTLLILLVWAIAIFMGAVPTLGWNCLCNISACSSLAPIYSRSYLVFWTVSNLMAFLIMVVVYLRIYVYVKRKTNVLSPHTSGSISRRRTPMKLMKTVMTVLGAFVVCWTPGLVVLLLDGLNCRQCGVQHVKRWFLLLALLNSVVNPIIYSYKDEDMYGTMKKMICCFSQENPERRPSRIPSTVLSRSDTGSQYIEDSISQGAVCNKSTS
Protocol: (§1) Cells expressing the receptor of interest are plated into clear, flat-bottom, black-wall 96-well plates (Costar) at a density of 80,000-150,000 cells per well and allowed to incubate for 48 hr at 5% CO2, 37° C. The growth medium is aspirated and 100 μl of loading medium containing fluo-3 dye is added to each well. The loading medium contains: Hank's BSS (without phenol red)(Gibco), 20 mM HEPES (Sigma), 0.1 or 1% BSA (Sigma), dye/pluronic acid mixture (e.g. 1 mM Flou-3, AM (Molecular Probes) and 10% pluronic acid (Molecular Probes) mixed immediately before use), and 2.5 mM probenecid (Sigma)(prepared fresh) The cells are allowed to incubate for about 1 hour at 5% CO2, 37° C.
During the dye loading incubation the compound plate is prepared. The compounds are diluted in wash buffer (Hank's BSS (without phenol red), 20 mM HEPES, 2.5 mM probenecid) to a 4×final concentration and aliquoted into a clear v-bottom plate (Nunc). Following the incubation the cells are washed to remove the excess dye. A Denley plate washer is used to gently wash the cells 4 times and leave a 100 μl final volume of wash buffer in each well. The cell plate is placed in the center tray and the compound plate is placed in the right tray of the FLIPR. The FLIPR software is setup for the experiment, the experiment is run and the data are collected. The data are then analyzed using an excel spreadsheet program.

human Edg7 receptor [2] = biological target: T1, human Edg7 receptor; assay: Inositol phosphate (IP) release in Edg7-transfected Cos-7, HEK293 and CHO cells; assay type: cell-based; parameters: expressed in transfected cells; host or cells: Cos-7, HEK293, CHO (transient, electroporation); conditions: for ability to activate Edg7 (inositol phosphate formation): Cos-7 cells transfected with Edg7, varying concentrations
Protocol: A typical protocol for the electroporation method as applied to Cos-7 cells is described as follows. Cells to be used for transfection are split 24 hours prior to the transfection to provide flasks which are subconfluent at the time of transfection. The cells are harvested by trypsinization resuspended in their growth media and counted. 5×10^6 cells are suspended in 300 μl of DMEM and placed into an electroporation cuvette. 8 μg of receptor DNA plus 8 μg of any additional DNA needed (e.g. G protein expression vector, reporter construct, antibiotic resistance marker, mock vector, etc.) is added to the cell suspension, the cuvette is placed into a BioRad Gene Pulser and subjected to an electrical pulse (Gene Pulser settings: 0.25 kV voltage, 950 μF capacitance). Following the pulse, 800 μl of complete DMEM is added to each cuvette and the suspension transferred to a sterile tube. Complete medium is added to each tube to bring the final cell concentration to 1×10^5 cells/100 μl. The cells are then plated as needed depending upon the type of assay to be performed. Edg7 receptor-mediated activation of the inositol phosphate (IP) second messenger pathways was assessed by radiometric measurement of IP products. In a 96 well microplate format assay, cells are plated at a density of 70,000 cells per well and allowed to incubate for 24 hours. The cells are then labeled with 0.5 μCi [^3H]myo-inositol overnight at 37° C., 5% CO2. Immediately before the assay, the medium is removed and replaced with 90 μL of PBS containing 10 mM LiCl. The plates are then incubated for 15 min at 37° C., 5% CO2. Following the incubation, the cells are challenged with agonist (10 μl/well; 10×concentration) for 30 min at 37° C., 5% CO2. The challenge is terminated by the addition of 100 μL of 50% v/v trichloroacetic acid, followed by incubation at 4° C. for greater than 30 minutes. Total IPs are isolated from the lysate by ion exchange chromatography. Briefly, the lysed contents of the wells are transferred to a Multiscreen HV filter plate (Millipore) containing Dowex AG1-X8 (200-400 mesh, formate form). The filter plates are prepared adding 100μL of Dowex AG1-X8 suspension (50% v/v, water: resin) to each well. The filter plates are placed on a vacuum manifold to wash or elute the resin bed. Each well is first washed 2 times with 200 μl of 5 mM myo-inositol. Total [^3H]inositol phosphates are eluted with 75 μl of 1.2M ammonium formate/0.1M formic acid solution into 96-well plates. 200 μL of scintillation cocktail is added to each well, and the radioactivity is determined by liquid scintillation counting.

human Edg7 receptor [3] = biological target: T1, human Edg7 receptor; assay: Calcium-activated Cl- currents in Xenopus oocytes injected with Edg7 mRNA; assay type: cell-based
Protocol: Oocytes are harvested from Xenopus laevis and injected with mRNA transcripts as previously described (Quick and Lester, 1994; Smith et al.,1997). Edg7 receptor RNA transcript is synthesized using the T7 polymerase (“Message Machine,” Ambion) from linearized plasmids or PCR products containing the complete coding region of the gene. Oocytes are injected with 1-50 ng synthetic receptor RNA and incubated for 3-8 days at 17° C. Currents are recorded under dual electrode voltage clamp (Axon Instruments Inc.) with 3 M KCl-filled glass microelectrodes having resistances of 1-2 Mohm. Unless otherwise specified, oocytes are voltage clamped at a holding potential of −80 mV. During recordings, oocytes are bathed in continuously flowing (1-3 ml/min) medium containing 96 mM NaCl, 2 mM KCl, 1.8 MM CaCl2, 1 mM MgCl2, and 5 mM HEPES, pH 7.5 (ND96). Drugs are applied either by local perfusion from a 10 μl glass capillary tube fixed at a distance of 0.5 mm from the oocyte, or by switching from a series of gravity fed perfusion lines.
Activation of the phospholipase C (PLC) pathway is assayed by applying a test compound in ND96 solution to oocytes previously injected with mRNA for the Edg7 receptor and observing inward currents at a holding potential of approximately −80 mV. The appearance of currents that reverse at −25 mV and display other properties of the Ca^++-activated Cl^− channel is indicative of receptor-activation of PLC and release of IP3 and intracellular Ca^++.
Involvement of the Gi/o class of G-proteins in GPCR-stimulated Ca^++-activated Cl^− currents is evaluated using PTX, a toxin which inactivates Gi/o G-proteins. Oocytes are injected with 25 ng PTX/oocyte and modulation of Ca^++-activated Cl^− currents by Edg7 receptor is evaluated 2-5 h subsequently.

[4] = system: LPA receptors endogenous to oocytes; assay: Calcium-activated Cl- currents in control (uninjected) Xenopus oocytes; assay type: cell-based, Xenopus laevis
[5] = system: mock (empty vector)-transfected Cos-7 cells; assay: Inositol phosphate (IP) formation in mock (empty vector)-transfected Cos-7 cells; assay type: cell-based; conditions: 1 μM final concentration, n=4
Protocol: A typical protocol for the electroporation method as applied to Cos-7 cells is described as follows. Cells to be used for transfection are split 24 hours prior to the transfection to provide flasks which are subconfluent at the time of transfection. The cells are harvested by trypsinization resuspended in their growth media and counted. 5×10^6 cells are suspended in 300 μl of DMEM and placed into an electroporation cuvette. 8 μg of receptor DNA plus 8 μg of any additional DNA needed (e.g. G protein expression vector, reporter construct, antibiotic resistance marker, mock vector, etc.) is added to the cell suspension, the cuvette is placed into a BioRad Gene Pulser and subjected to an electrical pulse (Gene Pulser settings: 0.25 kV voltage, 950 μF capacitance). Following the pulse, 800 μl of complete DMEM is added to each cuvette and the suspension transferred to a sterile tube. Complete medium is added to each tube to bring the final cell concentration to 1×10^5 cells/100 μl. The cells are then plated as needed depending upon the type of assay to be performed. Edg7 receptor-mediated activation of the inositol phosphate (IP) second messenger pathways was assessed by radiometric measurement of IP products. […] 200 μL of scintillation cocktail is added to each well, and the radioactivity is determined by liquid scintillation counting.

[6] = system: mock DNA (empty vector)-transfected CHO cells; assay: Intracellular calcium mobilization (FLIPR, fluo-3) in mock DNA-transfected CHO cells; assay type: cell-based, Chinese hamster; conditions: mean±SEM, n=6, read-out: EC50 of increase in intracellular calcium
Description: In another method, the measurement of intracellular calcium can also be performed on a 96-well (or higher) format and with alternative calcium-sensitive indicators, preferred examples of these are: aequorin, Fluo-3, Fluo-4, Fluo-5, Calcium Green-1, Oregon Green, and 488 BAPTA. After activation of the receptors with agonist ligands the emission elicited by the change of intracellular calcium concentration can be measured by a luminometer, or a fluorescence imager; a preferred example of this is the fluorescence imager plate reader (FLIPR).
as §1
During the dye loading incubation the compound plate is prepared. […] The data are then analyzed using an excel spreadsheet program.

O=c1ccn([C@@H]2O[C@H](COP(=O)(O)OP(=O)(O)OP(=O)(O)O)[C@@H](O)[C@H]2O)c(=O)[nH]1 [UTP]
intracellular calcium responses in Edg7- versus mock DNA-transfected cells (human Edg7 receptor [1]; CHO cells, n=3): almost identical

CCCCCCCCCCCCC/C=C/[C@@H](O)[C@@H](N)COP(=O)([O-])OCC[N+](C)(C)C [sphingosylphosphorylcholine]
ability to activate Edg7 (inositol phosphate formation) (human Edg7 receptor [2]): No dose-responsiveness

CCCCC[C@H](O)/C=C/[C@H]1[C@H](O)CC(=O)[C@@H]1C/C=C\CCCC(=O)O [prostaglandin E2]
activity against Edg7 (human Edg7 receptor [1]): inactive

phosphatidic acid
activation of Edg7 receptors (intracellular calcium) (human Edg7 receptor [1]; CHO cells, n=4): agonist | increase in intracellular calcium (human Edg7 receptor [1]; Edg7 receptors, CHO cells, n=4): approximately 5 fold | ability to activate Edg7 (inositol phosphate formation) (human Edg7 receptor [2]): partial agonist

Lysophosphatidic acid [LPA]
concentration at which nearly maximal responses were observed (human Edg7 receptor [3]; Edg7-injected oocytes, Cl- current): 100 nM | LPA response (Cl- current) after treatment with PTX (human Edg7 receptor [3]; Edg7-injected oocytes, PTX 25 ng injected 2-5 h prior to recording): substantial current remained | Cl- current amplitude (human Edg7 receptor [3]; oocytes injected with Edg7 mRNA, oleoyl LPA 1 μM, n=5): 1272±126 nA | inward Cl- currents, typical response ([4]; control oocytes lacking injection of foreign mRNA): 100-1000 nA | LPA response (Cl- current) after treatment with PTX ([4]; control oocytes, PTX 25 ng injected 2-5 h prior to recording): nearly abolished | Cl- current amplitude ([4]; uninjected oocytes, batch with low endogenous LPA activity, oleoyl LPA 1 μM, n=5): 18±18 nA

CCCCCCCC/C=C\CCCCCCCC(=O)O [oleic acid]
activity against Edg7 (human Edg7 receptor [1]): inactive

phosphatidyl choline
activity against Edg7 (human Edg7 receptor [1]): inactive

platelet-activating factor
activity against Edg7 (human Edg7 receptor [1]): inactive

CCCCCCCC/C=C\CCCCCCCC(=O)OCC(O)COP(=O)(O)O (centres unmarked) [oleoyl LPA, oleoyl lysophosphatidic acid]
peak intracellular calcium response in Edg7-transfected cells as compared to mock DNA-transfected cells (human Edg7 receptor [1]; CHO cells, 10 μM): approximately 3 fold | average increase in IP production [5]: 2 fold | EC50 [6]: 0.347 ± 0.054 µM | average increase in IP production (human Edg7 receptor [2]; Edg7-transfected Cos-7 cells, 1 μM final concentration, n=4): 3 fold | Emax of IP response (human Edg7 receptor [2]; all three cell lines (Cos-7, HEK 293, CHO)): 200-300%

sphingomyelin
activity against Edg7 (human Edg7 receptor [1]): inactive

CCCCC/C=C\C/C=C\C/C=C\C/C=C\CCCC(=O)NCCO [anandamide]
activity against Edg7 (human Edg7 receptor [1]): inactive

thromboxane B4
activity against Edg7 (human Edg7 receptor [1]): inactive

lysophosphatidylserine
significantly different response in Edg7-expressing cells as compared to mock DNA-transfected cells (human Edg7 receptor [1]; CHO cells, intracellular calcium, 10 μM): significantly different response

CCCCCCCCCCCCC/C=C/[C@@H](O)[C@@H](N)COP(=O)(O)O [sphingosine-1-phosphate]
activation of Edg7 receptors (intracellular calcium) (human Edg7 receptor [1]; CHO cells, n=4): failed to activate | ability to activate Edg7 (inositol phosphate formation) (human Edg7 receptor [2]): No dose-responsiveness
